# From patent US8748483B2, “Use of substituted pyranone acid derivatives for the treatment of metabolic syndrome” (SANOFI, priority 2007, dated 2014)
# Columns and labels:
# lipolysis = experiment: Inhibition of lipolysis in the whole animal after p.o. administration (FFA, glycerol, triglycerides in blood); assay type: in vivo, Wistar rats
# Experimental: The effect was tested on the whole animal (mouse, rat, hamster or dog), after a fasting period (e.g. of about 16 hours the substance is administered (e.g. p.o., iv., i.p., s.c.) and, with or without additional stimulation of endogenous lipolysis (e.g. by a bolus injection of 2 mg/kg i.p. isoprenaline), the effect of the test substance on lipolysis is determined on the basis of the liberated free fatty acids (FFA), glycerol and triglycerides by obtaining a blood sample (e.g. by retroorbital blood sampling) e.g. 15 min, 30, 60, 120 etc minutes after p.o. administration, and analyzing by standard methods of clinical chemistry (e.g. L. Thomas: Labor and Diagnose, 2nd edition, Medizinische Verlagsgesellschaft, Marburg/L. 1984; ISBN 3-921320-10-9)). The inhibition of lipolysis by the inhibitors is analyzed by comparing with the rate of lipolysis in correspondingly treated control animals.
# [1] = biological target: T1, GPCR HM74A (niacin receptor) (Homo sapiens, UniProt Q8TDS4); experiment: FLIPR in vitro functional assay, intracellular Ca2+ in recombinant HEK293 cells expressing HM74A and Gα6qi4myr; assay type: cell-based; details: 100% = 1 μM niacin
# T1 construct: expressed in transfected cells; host or cells: HEK293
# T1 sequence (Q8TDS4 whole entry): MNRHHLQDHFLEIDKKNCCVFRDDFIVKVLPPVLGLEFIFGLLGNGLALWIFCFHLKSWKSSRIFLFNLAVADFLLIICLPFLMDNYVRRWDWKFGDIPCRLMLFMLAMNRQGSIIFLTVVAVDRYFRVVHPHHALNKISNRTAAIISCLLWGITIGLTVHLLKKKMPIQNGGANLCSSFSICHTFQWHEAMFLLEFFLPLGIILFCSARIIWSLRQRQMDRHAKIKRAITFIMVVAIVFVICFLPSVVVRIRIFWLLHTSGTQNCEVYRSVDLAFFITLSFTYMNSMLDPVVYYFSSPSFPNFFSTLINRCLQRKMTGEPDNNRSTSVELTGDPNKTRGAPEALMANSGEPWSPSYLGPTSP
# Experimental: Function-testing assays were carried out by means of the FLIPR technique (“Fluorescence Imaging Plate Reader”, Molecular Devices Corp.). For this purpose, agonist-induced changes in the intracellular concentration of Ca^2+ in recombinant HEK293 cells which express both the GPCR HM74A (niacin receptor) and the hybrid G-protein Gα6qi4myr (see, for example, DE patent application 10033353) were determined.
# For the investigations, cells were seeded into 96-well microtiter plates (60 000 cells/well) and allowed to grow overnight. The medium was removed and the cells were incubated in buffer which contained the fluorescent dye Fluo-4. After this loading with dye, the cells were washed, test substance was added, and changes in the intracellular Ca^2+ concentration were measured in the FLIPR apparatus. Results have been shown as percentage change relative to the control (0%: no test substance added; 100%:1 μM reference agonist niacin added), used to calculate dose/activity plots and EC50 values determined.
# [2] = 3 mg/kg po, 15 min, Wistar rats
# [3] = 3 mg/kg po, 30 min, Wistar rats
# [4] = 3 mg/kg po, 60 min, Wistar rats
# [5] = 3 mg/kg po, 120 min, Wistar rats
# [6] = 3 mg/kg po, time 0, Wistar rats
# [7] = 1 mg/kg po, 30 min, Wistar rats
# [8] = 1 mg/kg po, 60 min, Wistar rats
# [9] = 1 mg/kg po, 120 min, Wistar rats
# [10] = 1 mg/kg po, time 0, Wistar rats
# [11] = 10 mg/kg po, 30 min, Wistar rats
# [12] = 10 mg/kg po, 60 min, Wistar rats
# [13] = 10 mg/kg po, 120 min, Wistar rats
# [14] = 10 mg/kg po, time 0, Wistar rats
smiles,measurement,setting,value
O=C(O)c1cc(=O)cco1 [Example 1],"lipolysis (reduction in FFA, glycerol and triglycerides)",lipolysis; 3 mg/kg po,distinctly reduced
same,FFA,lipolysis; [2],0.22 mmol/L
same,Glycerol,lipolysis; [2],55 µmol/L
same,Triglycerides,lipolysis; [2],0.48 mmol/L
same,FFA,lipolysis; [3],0.14 mmol/L
same,Glycerol,lipolysis; [3],43 µmol/L
same,Triglycerides,lipolysis; [3],0.28 mmol/L
same,FFA,lipolysis; [4],0.16 mmol/L
same,Glycerol,lipolysis; [4],43 µmol/L
same,Triglycerides,lipolysis; [4],0.21 mmol/L
same,FFA,lipolysis; [5],0.28 mmol/L
same,Glycerol,lipolysis; [5],74 µmol/L
same,Triglycerides,lipolysis; [5],0.25 mmol/L
same,FFA,lipolysis; [6],0.55 mmol/L
same,Glycerol,lipolysis; [6],117 µmol/L
same,Triglycerides,lipolysis; [6],0.53 mmol/L
same,EC50,[1],0.09 µM
"Cc1ccc(COc2coc(C(=O)O)cc2=O)cc1 [Example 2, 5-(4-methylbenzyloxy)-4-oxo-4H-pyran-2-carboxylic acid]",EC50,[1],4.12 µM
O=C(O)c1cc(=O)c(OCc2ccccc2)co1 [Example 3],EC50,[1],28.8 µM
C=CCOc1coc(C(=O)O)cc1=O [Example 4],EC50,[1],29.9 µM
CCCCCOc1coc(C(=O)O)cc1=O [Example 5],EC50,[1],1.2 µM
CCCCOc1coc(C(=O)O)cc1=O [Example 6],EC50,[1],52.9 µM
O=C(O)c1cc(=O)c(OCc2cccc(F)c2)co1 [Example 7],EC50,[1],62.8 µM
O=C(O)c1cc(=O)c(OCc2cccc([N+](=O)[O-])c2)co1 [Example 8],EC50,[1],36.8 µM
O=C(O)c1cc(=O)c(OCc2ccc([N+](=O)[O-])cc2)co1 [Example 9],EC50,[1],43.4 µM
N#Cc1ccc(COc2coc(C(=O)O)cc2=O)cc1 [Example 10],EC50,[1],14.7 µM
Cc1cc(C)cc(COc2coc(C(=O)O)cc2=O)c1 [Example 11],EC50,[1],31.2 µM
O=C(O)c1cc(=O)c(OCc2ccc(F)cc2)co1 [Example 12],EC50,[1],49.5 µM
O=C(O)c1cc(=O)c(OCc2cccc(Cl)c2)co1 [Example 13],EC50,[1],19.5 µM
O=C(O)c1cc(=O)c(OCc2ccccc2F)co1 [Example 14],EC50,[1],12.1 µM
N#Cc1cccc(COc2coc(C(=O)O)cc2=O)c1 [Example 15],EC50,[1],67.1 µM
"C/C=C/c1oc(C(=O)O)cc(=O)c1OCc1ccc(C)cc1 [Example 16, 5-(4-methylbenzyloxy)-4-oxo-6-propenyl-4H-pyran-2-carboxylic acid]",EC50,[1],0.1 µM
C/C=C/c1oc(C(=O)O)cc(=O)c1OCc1ccc([N+](=O)[O-])cc1 [Example 17],EC50,[1],0.24 µM
C/C=C/c1oc(C(=O)O)cc(=O)c1OCc1ccc(C#N)cc1 [Example 18],EC50,[1],0.36 µM
C/C=C/c1oc(C(=O)O)cc(=O)c1OCCCCC [Example 19],EC50,[1],0.39 µM
C/C=C/c1oc(C(=O)O)cc(=O)c1OCC [Example 20],EC50,[1],0.73 µM
"CCCc1oc(C(=O)O)cc(=O)c1OCc1ccc(C)cc1 [Example 21, 5-(4-methylbenzyloxy)-4-oxo-6-propyl-4H-pyran-2-carboxylic acid]",EC50,[1],4.4 µM
CCCc1oc(C(=O)O)cc(=O)c1OCc1ccc(C#N)cc1 [Example 22],EC50,[1],45 µM
CCCCCCOc1coc(C(=O)O)cc1=O [Example 23],EC50,[1],34.2 µM
O=C(O)c1cc(=O)c(OCC(F)(F)F)co1 [Example 24],EC50,[1],1 µM
O=C(O)c1cc(=O)c(OCCCF)co1 [Example 25],EC50,[1],0.76 µM
CC(C)COc1coc(C(=O)O)cc1=O [Example 26],EC50,[1],45.3 µM
CC(C)Oc1coc(C(=O)O)cc1=O [Example 27],EC50,[1],4.61 µM
O=C(O)c1cc(=O)c(OCc2ccc(OC(F)F)cc2)co1 [Example 28],EC50,[1],1.81 µM
O=C(O)c1cc(=O)c(OCc2ccc(C(F)(F)F)cc2)co1 [Example 29],EC50,[1],45.1 µM
CCc1ccc(COc2coc(C(=O)O)cc2=O)cc1 [Example 30],EC50,[1],3.24 µM
O=C(O)c1cc(=O)c(OCc2ccc(Cl)cc2)co1 [Example 31],EC50,[1],7.43 µM
CC(C)c1ccc(COc2coc(C(=O)O)cc2=O)cc1 [Example 32],EC50,[1],1.48 µM
O=C(O)c1cc(=O)c(OCc2ccc(OC(F)(F)F)cc2)co1 [Example 33],EC50,[1],22.4 µM
N#Cc1ccc(C(=O)Oc2coc(C(=O)O)cc2=O)cc1 [Example 34],EC50,[1],0.31 µM
Cc1ccc(C(=O)Oc2coc(C(=O)O)cc2=O)cc1 [Example 35],EC50,[1],1.19 µM
C/C=C/c1oc(C(=O)O)cc(=O)c1OCC(F)(F)F [Example 36],EC50,[1],0.07 µM
"CCCc1cc(=O)cc(C(=O)O)o1 [Example 37, 6-propyl-4-oxo-4H-pyran-2-carboxylic acid]",EC50,[1],66.7 µM
C/C=C/c1oc(C(=O)O)cc(=O)c1CCCC [Example 38],EC50,[1],0.14 µM
COC(=O)/C=C/c1coc(C(=O)O)cc1=O [Example 39],EC50,[1],1.19 µM
"CCOC(=O)/C=C/c1coc(C(=O)O)cc1=O [Example 40, 5-((E)-2-ethoxycarbonylvinyl)-4-oxo-4H-pyran-2-carboxylic acid]",EC50,[1],1.19 µM
CC(C)OC(=O)/C=C/c1coc(C(=O)O)cc1=O [Example 41],EC50,[1],6.87 µM
C=C(CCC)c1coc(C(=O)O)cc1=O [Example 42],EC50,[1],6.6 µM
CCC/C=C/c1coc(C(=O)O)cc1=O [Example 43],EC50,[1],1.03 µM
Cc1ccc(/C=C/c2coc(C(=O)O)cc2=O)cc1 [Example 44],EC50,[1],4.83 µM
O=C(O)c1cc(=O)c(/C=C/CCc2ccccc2)co1 [Example 45],EC50,[1],10.8 µM
CCCCCc1coc(C(=O)O)cc1=O [Example 46],EC50,[1],0.01 µM
CCCCc1coc(C(=O)O)cc1=O [Example 47],"lipolysis (reduction in FFA, glycerol and triglycerides)",lipolysis; 1 mg/kg po,distinctly reduced
same,FFA,lipolysis; [7],0.25 mmol/L
same,Glycerol,lipolysis; [7],41 µmol/L
same,Triglycerides,lipolysis; [7],0.25 mmol/L
same,FFA,lipolysis; [8],0.37 mmol/L
same,Glycerol,lipolysis; [8],55 µmol/L
same,Triglycerides,lipolysis; [8],0.37 mmol/L
same,FFA,lipolysis; [9],0.41 mmol/L
same,Glycerol,lipolysis; [9],70 µmol/L
same,Triglycerides,lipolysis; [9],0.41 mmol/L
same,FFA,lipolysis; [10],0.84 mmol/L
same,Glycerol,lipolysis; [10],162 µmol/L
same,Triglycerides,lipolysis; [10],0.84 mmol/L
same,EC50,[1],0.01 µM
"CCCc1coc(C(=O)O)cc1=O [Example 48, 5-propyl-4-oxo-4H-pyran-2-carboxylic acid]","lipolysis (reduction in FFA, glycerol and triglycerides)",lipolysis; 10 mg/kg po,distinctly reduced
same,FFA,lipolysis; [11],0.19 mmol/L
same,Glycerol,lipolysis; [11],35 µmol/L
same,Triglycerides,lipolysis; [11],0.36 mmol/L
same,FFA,lipolysis; [12],0.19 mmol/L
same,Glycerol,lipolysis; [12],26 µmol/L
same,Triglycerides,lipolysis; [12],0.25 mmol/L
same,FFA,lipolysis; [13],0.16 mmol/L
same,Glycerol,lipolysis; [13],24 µmol/L
same,Triglycerides,lipolysis; [13],0.27 mmol/L
same,FFA,lipolysis; [14],0.51 mmol/L
same,Glycerol,lipolysis; [14],100 µmol/L
same,Triglycerides,lipolysis; [14],0.41 mmol/L
same,EC50,[1],0.05 µM
"CC(C)CCc1coc(C(=O)O)cc1=O [Example 49, 5-(3-methylbutyl)-4-oxo-4H-pyran-2-carboxylic acid]",EC50,[1],0.21 µM
CCC(C)c1coc(C(=O)O)cc1=O (centres unmarked) [Example 50],"lipolysis (reduction in FFA, glycerol and triglycerides)",lipolysis; 3 mg/kg po,distinctly reduced
same,FFA,lipolysis; [2],0.34 mmol/L
same,Glycerol,lipolysis; [2],67 µmol/L
same,Triglycerides,lipolysis; [2],0.39 mmol/L
same,FFA,lipolysis; [3],0.43 mmol/L
same,Glycerol,lipolysis; [3],82 µmol/L
same,Triglycerides,lipolysis; [3],0.36 mmol/L
same,FFA,lipolysis; [4],0.50 mmol/L
same,Glycerol,lipolysis; [4],86 µmol/L
same,Triglycerides,lipolysis; [4],0.58 mmol/L
same,FFA,lipolysis; [5],0.52 mmol/L
same,Glycerol,lipolysis; [5],101 µmol/L
same,Triglycerides,lipolysis; [5],0.71 mmol/L
same,FFA,lipolysis; [6],0.64 mmol/L
same,Glycerol,lipolysis; [6],127 µmol/L
same,Triglycerides,lipolysis; [6],0.47 mmol/L
same,EC50,[1],0.16 µM
CC(C)Cc1coc(C(=O)O)cc1=O [Example 51],EC50,[1],0.22 µM
CC(C)c1coc(C(=O)O)cc1=O [Example 52],EC50,[1],2.69 µM
